Reference: ChEMBL document CHEMBL4346705, “(±)-trans-Dihydronarciclasine and (±)-trans-dihydrolycoricidine analogues modified in their ring A: Evaluation of their anticancer activity and a SAR study” (2019)

How the values were obtained:
Type in all cases: functional
CCRF-CEM = assay: Cytotoxicity against human CCRF-CEM cells assessed as growth inhibition after 48 hrs by sulforhodamine B assay
T47D = assay: Cytotoxicity against human T47D cells assessed as growth inhibition after 48 hrs by sulforhodamine B assay
U-251 = assay: Cytotoxicity against human U251 cells assessed as growth inhibition after 48 hrs by sulforhodamine B assay; conditions: U-251, 48 h
SK-MEL-28 = assay: Cytotoxicity against human SK-MEL-28 cells assessed as growth inhibition after 48 hrs by sulforhodamine B assay; conditions: SK-MEL-28, 48 h
MCF7 = assay: Cytotoxicity against human MCF7 cells assessed as growth inhibition after 48 hrs by sulforhodamine B assay; conditions: MCF7, 48 h
SN12C = assay: Cytotoxicity against human SN12C cells assessed as growth inhibition after 48 hrs by sulforhodamine B assay; conditions: for CC50: read-out: LC50 (the source's name)
A549 = assay: Cytotoxicity against human A549 cells assessed as growth inhibition after 48 hrs by sulforhodamine B assay; conditions: A549, 48 h; for CC50: read-out: LC50 (the source's name)
HT-29 = assay: Cytotoxicity against human HT-29 cells assessed as growth inhibition after 48 hrs by sulforhodamine B assay; conditions: HT-29, 48 h
TK-10 = assay: Cytotoxicity against human TK10 cells assessed as growth inhibition after 48 hrs by sulforhodamine B assay; conditions: TK-10, 48 h
RXF 393 = assay: Cytotoxicity against human RXF393 cells assessed as growth inhibition after 48 hrs by sulforhodamine B assay; conditions: RXF 393, 48 h
SK-OV-3 = assay: Cytotoxicity against human SKOV3 cells assessed as growth inhibition after 48 hrs by sulforhodamine B assay; conditions: SK-OV-3, 48 h; for CC50: read-out: LC50 (the source's name)
DU-145 = assay: Cytotoxicity against human DU145 cells assessed as growth inhibition after 48 hrs by sulforhodamine B assay; conditions: DU-145, 48 h
NCI-H23 = assay: Cytotoxicity against human NCI-H23 cells assessed as growth inhibition after 48 hrs by sulforhodamine B assay; conditions: NCI-H23, 48 h; for CC50: read-out: LC50 (the source's name)
OVCAR-3 = assay: Cytotoxicity against human OVCAR3 cells assessed as growth inhibition after 48 hrs by sulforhodamine B assay; conditions: OVCAR-3, 48 h
K562 = assay: Cytotoxicity against human K562 cells assessed as growth inhibition after 48 hrs by sulforhodamine B assay; conditions: K562, 48 h; for CC50: read-out: LC50 (the source's name)
SNB-19 = assay: Cytotoxicity against human SNB19 cells assessed as growth inhibition after 48 hrs by sulforhodamine B assay; conditions: SNB-19, 48 h
SF-295 = assay: Cytotoxicity against human SF295 cells assessed as growth inhibition after 48 hrs by sulforhodamine B assay; conditions: SF-295, 48 h; for CC50: read-out: LC50 (the source's name)
NCI-H322M = assay: Cytotoxicity against human NCI-H322M cells assessed as growth inhibition after 48 hrs by sulforhodamine B assay; conditions: for CC50: read-out: LC50 (the source's name)
MDA-MB-435 = assay: Cytotoxicity against human MDA-MB-435 cells assessed as growth inhibition after 48 hrs by sulforhodamine B assay; conditions: MDA-MB-435, 48 h
UACC-257 = assay: Cytotoxicity against human UACC257 cells assessed as growth inhibition after 48 hrs by sulforhodamine B assay; conditions: UACC-257, 48 h
SNB-75 = assay: Cytotoxicity against human SNB75 cells assessed as growth inhibition after 48 hrs by sulforhodamine B assay; conditions: SNB-75, 48 h
OVCAR-8 = assay: Cytotoxicity against human OVCAR8 cells assessed as growth inhibition after 48 hrs by sulforhodamine B assay; conditions: OVCAR-8, 48 h
SK-MEL-5 = assay: Cytotoxicity against human SK-MEL-5 cells assessed as growth inhibition after 48 hrs by sulforhodamine B assay; conditions: SK-MEL-5, 48 h; for CC50: read-out: LC50 (the source's name)

## O=C1NC2C(CC(O)C(O)C2O)c2cc3c(c(O)c21)OCO3 (racemic)
CCRF-CEM
  GI50: 52.9 nM
  TGI: 2150 nM
T47D
  GI50: 52.9 nM
  TGI: 670 nM
U-251
  GI50: 45.2 nM
  TGI: 1010 nM
SK-MEL-28
  GI50: 62.9 nM
  TGI: 480 nM
MCF7
  GI50: 36.3 nM
  TGI: 1230 nM
SN12C
  GI50: 69.3 nM
  TGI: 800 nM
  CC50: > 100000 nM
A549
  GI50: 139 nM
  TGI: 1160 nM
  CC50: > 100000 nM
HT-29
  GI50: 89.6 nM
  TGI: 1000 nM
TK-10
  GI50: 221 nM
  TGI: 1680 nM
RXF 393
  GI50: 118 nM
  TGI: 510 nM
SK-OV-3
  GI50: 94.9 nM
  TGI: 1040 nM
  CC50: > 100000 nM
DU-145
  GI50: 56.7 nM
  TGI: 620 nM
NCI-H23
  GI50: 74.4 nM
  TGI: 520 nM
  CC50: > 100000 nM
OVCAR-3
  GI50: 93.3 nM
  TGI: 480 nM
K562
  GI50: 52.9 nM
  TGI: > 100000 nM
  CC50: > 100000 nM
SNB-19
  GI50: 46.6 nM
  TGI: 690 nM
SF-295
  GI50: 115 nM
  TGI: 770 nM
  CC50: > 100000 nM
NCI-H322M
  GI50: 49.6 nM
  TGI: 480 nM
  CC50: > 100000 nM
MDA-MB-435
  GI50: 68.1 nM
  TGI: 510 nM
UACC-257
  GI50: 68.7 nM
  TGI: 540 nM
SNB-75
  GI50: 75.4 nM
  TGI: 620 nM
SNB-75; read-out: LC50 (the source's name)
  CC50: 13200 nM
OVCAR-8
  GI50: 57.6 nM
  TGI: 1060 nM
SK-MEL-5
  GI50: 71.9 nM
  TGI: 360 nM
  CC50: 2220 nM

## O=C1NC2C(CC(O)C(O)C2O)c2cc3c(c(O)c21)OCCO3 (racemic)
CCRF-CEM
  GI50: 73.7 nM
  LC50 (concentration giving 50% net cell kill): > 100000 nM
  TGI: 1830 nM
T47D
  GI50: 143 nM
  LC50 (concentration killing 50% of cells): > 100000 nM
  TGI: 900 nM
U-251
  GI50: 243 nM
  LC50: > 100000 nM
  TGI: 14500 nM
SK-MEL-28
  GI50: 238 nM
  LC50 (concentration killing 50% of cells): 29400 nM
  TGI: 890 nM
MCF7
  GI50: 103 nM
  LC50: > 100000 nM
  TGI: 590 nM
SN12C
  GI50: 141 nM
  TGI: 890 nM
  CC50: > 100000 nM
A549
  GI50: 355 nM
  TGI: 8530 nM
  CC50: > 100000 nM
HT-29
  GI50: 299 nM
  LC50 (concentration causing 50% net cell kill): 96400 nM
  TGI: 1330 nM
TK-10
  GI50: 563 nM
  LC50: > 100000 nM
  TGI: 3870 nM
RXF 393
  GI50: 179 nM
  LC50 (50% lethal concentration): 6300 nM
  TGI: 710 nM
SK-OV-3
  GI50: 496 nM
  TGI: 4030 nM
  CC50: > 100000 nM
DU-145
  GI50: 239 nM
  LC50: > 100000 nM
  TGI: 860 nM
NCI-H23
  GI50: 214 nM
  TGI: 870 nM
  CC50: > 100000 nM
OVCAR-3
  GI50: 280 nM
  LC50: > 100000 nM
  TGI: 960 nM
K562
  GI50: 126 nM
  TGI: 10700 nM
  CC50: > 100000 nM
SNB-19
  GI50: 155 nM
  LC50: > 100000 nM
  TGI: 1030 nM
SF-295
  GI50: 357 nM
  TGI: 2640 nM
  CC50: > 100000 nM
NCI-H322M
  GI50: 105 nM
  TGI: 620 nM
  CC50: > 100000 nM
MDA-MB-435
  GI50: 265 nM
  LC50 (concentration killing 50% of cells): 13300 nM
  TGI: 1170 nM
UACC-257
  GI50: 289 nM
  LC50: > 100000 nM
  TGI: 1470 nM
OVCAR-8
  GI50: 311 nM
  LC50: > 100000 nM
  TGI: 5890 nM
SK-MEL-5
  GI50: 181 nM
  TGI: 470 nM
  CC50: 2220 nM
